Data reported in patent US11993571B2, “Indole derivatives as efflux pump inhibitors” (RUTGERS, THE STATE UNIVERSITY OF NEW JERSEY, priority 2017, dated 2024).
Structures can show the parent of a compound that is named as a salt. Values belong to the compound of their own block, whether it stands above or below them.

How the values were obtained:
[1] = system: P. aeruginosa [ATCC 27853]; assay: Mouse septicemia model of infection; type: in vivo, Swiss Webster female mice; settings: experiment #512, cefepime, 10 mg/ml b.i.d., 250 ul
Protocol: A general method for the in vivo assessment of bacterial EPIs is complicated by the fact that that both the antibiotic and the EPI need to be present for synergy to be achieved. A general method was discovered that has proven to be effective in establishing the relative efficacy of bacterial EPIs in a mouse septicemia model. The bacterial EPI is administered initially intravenously to mice with septicemia, followed 5 minutes later by the intravenous administration or oral administration of the antibiotic. A second administration of the EPI is then administered subcutaneously after an additional 5 minutes to act as a booster, followed by the final administration of the antibiotic either intravenously or orally after the second administration of the EPI. […] In a few instances, a second regiment of both EPI and antibiotic as administered on day 1 was required after 24 hours to affect cures.
Determination of the in vivo efficacy of bacterial efflux pump inhibitors (EPIs) can be efficiently determined using a mouse septicemia model of infection. The systemic infection is initiated by a 500 ul intraperitoneal injection of an inoculum containing bacteria (such as P. aeruginosa [ATCC 27853]) at a concentration of approximately 5×10^5 cells in 5% mucin in Swiss Webster female mice. […]

[2] = system: Pseudomonas aeruginosa ATCC 27853; assay: Standard EPI assay (MIC of levofloxacin or cefepime in absence and presence of the EPI); type: cell-based; settings: P. aeruginosa ATCC 27853
Protocol: (§1) MIC assays were conducted in accordance with Clinical and Laboratory Standards Institute (CLSI) guidelines for broth microdilution.
(§2) The EPI assay for the purposes of these studies represents a MIC assay in which the MIC of the antibiotic against the bacteria is tested in the presence of an experimental efflux pump inhibitor (EPI). […] Using serial dilutions of the EPI, its enhancement of antibiotic activity was then evaluated. […] For the evaluation of the efficacy of an EPI against bacteria that were pre-exposed to an antibiotic, the inoculum of bacteria that used was developed from a bacterial culture isolated as a single colony following exposure at ½ the MIIC of the antibiotic (so as to induce efflux pump expression), was to be used in combination with the EPI.
In our standard EPI assay, the MIC of the test antibiotic is determined in the absence and presence of sub-inhibitory concentrations of the EPI. Initially, the sub-inhibitory concentration used was ½×MIC of the EPI. […] Similar methodology was employed to examine the synergy with Escherichia coli ATCC 25922 in the presence of varied concentrations of these EPIs using clarithromycin as the antibiotic.

[3] = system: P. aeruginosa ATCC 27853; assay: Intrinsic MIC assay (CLSI broth microdilution); type: cell-based; settings: Pseudomonas aeruginosa, ATCC27853
Protocol: as §1
The intrinsic MIC of the experimental EPIs was tested with the method described. The 2-fold serial dilution begins with 100 μg/mL of tested compound in the first column of the 96-well plates. The following Gram-negative bacterial strains were included in these assays: […]

[4] = system: P. aeruginosa ATCC 27853 pre-exposed to cefepime; assay: Pre-exposure bacterial EPI assay; type: cell-based, Pseudomonas aeruginosa
Protocol: as §2
The principle underlying this pre-exposure is that exposure of the bacteria to sub-inhibitory concentrations of the test antibiotic will induce expression of efflux pumps, if any, and may represent the scenario in vivo more accurately.

Structure (SMILES): CC(C)C(N)CC[C@H](N)CNC(=O)c1cc2ccc(-c3ccc(F)cc3)cc2[nH]1 (stereo partly drawn) [Example 6, N-((2S)-2,5-diamino-6-methylheptyl)-6-(4-fluorophenyl)-1H-indole-2-carboxamide dihydrochloride]
- % Survival (72 hr) Antibiotic + EPI ([1]; Example 6, 3.0 mg/ml b.i.d.): 100%
- MIC of levofloxacin in the presence of EPI ([2]; 6.25 μg/mL of the EPI): 0.063 µg/mL
- reduction of the MIC of levofloxacin relative to the absence of EPI ([2]; 6.25 μg/mL of the EPI): 32 fold
- MIC of cefepime in the presence of EPI ([2]; 12.5 μg/mL of the EPI): 1.0 µg/mL
- decrease of the MIC of cefepime ([2]; 12.5 μg/mL of the EPI): 2 fold
- MIC [3]: 25 µg/mL

Structure (SMILES): NCCC[C@@H](N)CNC(=O)c1cc2ccc(-c3ccc(F)cc3)cc2[nH]1 [Example 20, (R)-5-(6-(4-fluorophenyl)-1H-indole-2-carboxamido)pentane-1,4-diaminium chloride]
- MIC of cefepime against cefepime-exposed P. aeruginosa in the presence of EPI ([4]; 6.25 μg/mL of the EPI): 0.5 µg/mL
- reduction of the MIC of cefepime against cefepime-exposed P. aeruginosa ([4]; 6.25 μg/mL of the EPI): 8 fold

Structure (SMILES): CO/N=C(\C(=O)N[C@@H]1C(=O)N2C(C(=O)[O-])=C(C[N+]3(C)CCCC3)CS[C@H]12)c1csc(N)n1 [cefepime, reference compound]
- % Survival (72 hr) Antibiotic Only ([1]; mice infected with P. aeruginosa): 25%
- MIC ([4]; Pseudomonas aeruginosa, ATCC27853, read-out: MIC of cefepime against P. aeruginosa pre-exposed to cefepime): 16 µg/mL

- MIC ([2]; Pseudomonas aeruginosa, ATCC27853): 1 µg/mL
Structure (SMILES): C[C@H]1COc2c(N3CCN(C)CC3)c(F)cc3c(=O)c(C(=O)O)cn1c23 [levofloxacin, reference compound]
